Patent US9359275B2, “Natural product antibiotics and analogs thereof” (Children's Medical Center Corporation, priority 2012, dated 2016)
≈ marks a conversion by molar mass, not a printed value. Where two headings read alike, the source gives them in different places.

Columns and labels:
E. coli ATCC 25922 = experiment: MIC, microdilution broth method in CAMHB; type: cell-based, Escherichia coli
P. aeruginosa ATCC 27853 = experiment: MIC, microdilution broth method in CAMHB; type: cell-based, Pseudomonas aeruginosa
[1] = test system: K. pneumoniae carbapenemase positive ATCC BAA-1705; experiment: MIC, microdilution broth method in CAMHB; type: cell-based, Klebsiella pneumoniae
MRSA ATCC BAA-976 = experiment: MIC, microdilution broth method in CAMHB; type: cell-based, Staphylococcus aureus
V. cholerae PW357 = experiment: MIC, microdilution broth method in CAMHB; type: cell-based, Vibrio cholerae
[2] = test system: M. tuberculosis H37Rv ATCC 27294; experiment: MIC, microplate-based Alamar blue assay (MABA); type: cell-based, Mycobacterium tuberculosis
V. cholerae [3] = experiment: Medium acidification (sugar fermentation) assay in pH-MMSuc, A615; conditions: 30° C.
Procedure: The assays were carried out at 30° C. in pH-MMSuc to monitor sugar fermentation by A615 (FIGS. 5A, 5B, and 5C) or in MMPyr to monitor bacterial growth by OD615 (D, E, and F).
The assays were carried out at 30° C. in pH-MMSuc to monitor sugar fermentation by A615.
A minimal medium (MM) supplemented with sucrose (0.5% wt/vol), thymol blue (0.006% wt/vol) and bromothymol blue (0.006% wt/vol) (pH-MM^Suc) was used for the HTS (Houot et al., J Bacteriol (2008) 190: 311-320).
Conditions were tested in duplicate in each experiment, and two experimental replicates were performed on separate days.

V. cholerae [4] = experiment: Growth assay in MMPyr (OD615) and plating for CFU; conditions: with the assay described
Procedure: The assays were carried out at 30° C. in pH-MMSuc to monitor sugar fermentation by A615 (FIGS. 5A, 5B, and 5C) or in MMPyr to monitor bacterial growth by OD615 (D, E, and F). Bacteria were exposed to compound 1 (FIGS. 5A and 5D), compound 2 (FIGS. 5B and 5E) or compound 3 (FIGS. 5C and 5F) at concentrations ranging from 14 to 383 μM.
In secondary screens, MM was also supplemented with glucose (0.5% wt/vol), thymol blue (0.006% wt/vol), and bromothymol blue (0.006% wt/vol) (pH-MM^Glu') or pyruvate (0.5% wt/vol) (MM^Pyr).
Conditions were tested in duplicate in each experiment, and two experimental replicates were performed on separate days. […] To determine whether this represented bacteriostatic or bactericidal activity, dilutions of the cell suspensions were plated on LB agar after 20 hours of growth in MM^Pyr supplemented with compound 1 at a concentration of 383 μM.

[5] = Escherichia coli, ATCC25922, E. coli ATCC 25922, read-out: MIC
[6] = Pseudomonas aeruginosa, ATCC27853, P. aeruginosa ATCC 27853, read-out: MIC
[7] = Klebsiella pneumoniae, ATCCBAA1705, K. pneumoniae carbapenemase positive ATCC BAA-1705, read-out: MIC
[8] = Staphylococcus aureus, MRSA ATCC BAA-976, read-out: MIC
[9] = Vibrio cholerae, V. cholerae PW357, read-out: MIC
[10] = Mycobacterium tuberculosis, M. tuberculosis H37Rv ATCC 27294, Alamar Blue Assay, ≧90% inhibition, read-out: MIC

Compound	MIC (E. coli ATCC 25922; [5])	MIC (P. aeruginosa ATCC 27853; [6])	MIC [1, 7]	MIC (MRSA ATCC BAA-976; [8])	MIC (V. cholerae PW357; [9])	MIC [2, 10]	further results
CC1(C)S[C@@H]2[C@H](NC(=O)[C@H](N)c3ccccc3)C(=O)N2[C@H]1C(=O)O [AMP, ampicillin]	2.5 µg/mL (≈ 7.15 µM)	> 80 µg/mL	> 80 µg/mL	> 80 µg/mL	2.5 µg/mL (≈ 7.15 µM)	0.25 µg/mL (≈ 0.715 µM)	
CCCc1c(O)ccc(O)c1CO [Compound 1, 2-(hydroxymethyl)-3-propyl hydroquinone]							MIC (E. coli ATCC 25922; Escherichia coli, ATCC25922): 80 µg/mL (≈ 439 µM); MIC (P. aeruginosa ATCC 27853; Pseudomonas aeruginosa, ATCC27853): 80 µg/mL (≈ 439 µM); MIC ([1]; Klebsiella pneumoniae, ATCCBAA1705): > 80 µg/mL; MIC (MRSA ATCC BAA-976; Staphylococcus aureus): 10 µg/mL (≈ 54.9 µM); MIC (V. cholerae PW357; Vibrio cholerae, PW357): 40 µg/mL (≈ 220 µM); MIC ([2]; Mycobacterium tuberculosis): 25 µg/mL (≈ 137 µM); concentration at which medium acidification was completely blocked (V. cholerae [3]): 261 µM; concentration at which medium acidification was inhibited (V. cholerae [3]): 134 µM
CC1Cc2c(ccc(O)c2CO)O1 (centres unmarked) [Compound 2, 5-hydroxy-4-(hydroxymethyl)-2-methyl 2,3-dihydrobenzofuran]							antibacterial activity (in words) (V. cholerae [4]): demonstrated anti-bacterial activity
CCCC1=C(CO)C(=O)C=CC1=O [Compound 3, 2-(hydroxymethyl)-3-propyl benzoquinone]							antibacterial activity (in words) (V. cholerae [4]): little to no antibacterial activity
C[C@@H](O)[C@H]1C(=O)N2C(C(=O)O)=C(SCCN=CN)C[C@H]12 [IMI, imipenem]	1.25 µg/mL (≈ 4.18 µM)	5 µg/mL (≈ 16.7 µM)	> 80 µg/mL	1.25 µg/mL (≈ 4.18 µM)	1.25 µg/mL (≈ 4.18 µM)	100 µg/mL (≈ 334 µM)	
C[C@H]1COc2c(N3CCN(C)CC3)c(F)cc3c(=O)c(C(=O)O)cn1c23 [LEVO, levofloxacin]	0.019 µg/mL (≈ 0.0526 µM)	1.25 µg/mL (≈ 3.46 µM)	> 80 µg/mL	0.312 µg/mL (≈ 0.863 µM)	< 0.005 µg/mL	0.25 µg/mL (≈ 0.692 µM)	
CC1(O)CCC(c2c(O)cc3c(c2O)C(=O)c2c(O)cc(O)cc2C3=O)CO1 (centres unmarked) [SC3-22-19]							sugar utilization (V. cholerae [3]): decreased sugar utilization
bactrim [TMP/SMX]							MIC (E. coli ATCC 25922; E. coli ATCC 25922): 0.125 µg/mL; MIC (P. aeruginosa ATCC 27853): >16 µg/mL; MIC ([1]; K. pneumoniae carbapenemase positive ATCC BAA-1705): >16 µg/mL; MIC (MRSA ATCC BAA-976; MRSA ATCC BAA-976): 0.062 µg/mL; MIC (V. cholerae PW357; V. cholerae PW357): >16 µg/mL; MIC ([2]; M. tuberculosis H37Rv ATCC 27294, Alamar Blue Assay, ≧90% inhibition): 2 µg/mL
